{"source": "patent US20200171056A1", "about": "“SULFONYLUREA COMPOUNDS IN THE TREATMENT OF DISEASE ASSOCIATED WITH UV-INDUCED DAMAGE” (CeMM - Forschungszentrum für Molekulare Medizin GmbH, priority 2017, published 2020)", "key": {"SUR1 transcript": {"test_system": "SUR1 transcript", "experiment": "SUR1 mRNA expression by quantitative reverse transcription PCR", "type": "cell-based, human", "conditions": "ΔXPA cells, 0.5 mM for 6 hours, 15 J/M^2 UV (FIG. 9B)", "protocol": "A. Fragments Per Kilobase Million (FPKM) for SUR1 and GAPDH in HAP1 WT cells compared, from RNA sequencing. B. mRNA expression of SUR1 transcript assessed by quantitative reverse transcription PCR in WT and ΔXPA cells with or without 0.5 mM acetohexamide treatment for 6 hours, followed by 15 J/M^2 UV irradiation and subsequent recovery as indicated. Expression of GAPDH was used as a reference. Error bars indicate SEM (n=3).\nWT and ΔXPA HAP1 cells were harvested and RNA was isolated using phenol-chlorophorm extraction. After treatment with 1 μl DNase (Sigma), the cDNA was transcribed using SuperScript III Reverse Transcriptase (Invitrogen). An amount of 1 μg of cDNA template was used for the qRT-PCR using SYBR Green qPCR Mastermix (Qiagen). Analysis was performed in triplicates using GAPDH as a control gene. The PCR was performed on a 7900HT Fast Real-Time PCR System (Applied Biosystems). The following primers were used: […]"}, "[1]": {"test_system": "DNA repair knockout HAP1 cell lines", "experiment": "Percentage of rescue in panel of 20 DNA repair-deficient cell lines after UV", "type": "cell-based, human", "source_text": "FIG. 3. Loss of MUTYH mimics acetohexamide function A. Bubble plot displaying the percentage of rescue, defined as the difference in survival of a given cell line treated with acetohexamide compared to untreated, following UV irradiation. The light grey, dark grey bubbles highlight ΔMUTYH, ΔXPA […], and black bubbles indicate the rest of the knockout cell lines and WT HAP1. The size of the bubbles indicates the significance as log10 (p-value). BER: base excision repair; NER: nucleotide excision repair; DSBR; double-strand break repair; MMR: mis-match repair; FA: Fanconi aneamia; DR; direct reversal; TLS; translesion synthesis. B. Survival of WT and MUTYH-deficient (ΔMUTYH) cells with or without 0.5 mM acetohexamide treatment, followed by UV irradiation, as assessed after 3 days using CellTitre-Glo. Loss of MUTYH protein was confirmed by immunoblotting using an anti-MUTYH antibody. ACTIN was used as a loading control. C. Deletion of MUTYH in WT HAP1 or an XPA-deficient background was confirmed by immunoblotting using an anti-MUTYH antibody. TUBULIN was used as a loading control. D. Clonogenic survival of WT, ΔXPA or ΔXPA-MUTYH cells irradiated with UV at the indicated doses or left untreated. Cells were fixed and stained 10 days later.\nSince acetohexamide enhanced the clearance of CPDs in NER-deficient cells, it was speculated that its mode-of-action could be via one the known DNA excision repair pathways. Thus, a panel of 20 DNA repair-deficient cell lines was prepared using CRISPR-Cas9, representing all DNA repair pathways. Pol kappa (POLK) was selected to represent translesion synthesis (TLS) polymerases since it has roles in the repair synthesis step of NER. Subsequently, these cell lines (as well as two wildtype controls) were treated with acetohexamide and exposed to UV irradiation (FIG. 3A). […]\nThe DNA repair knockout cell lines were generated in collaboration with Horizon Genomics. […] Subsequently, the genomic DNA was isolated using Direct PCR-Cell Kit (PeqLab) and the region targeted by the gRNA was PCR amplified and analyzed by Sanger sequencing. […]"}}}
{"smiles": "CC(=O)c1ccc(S(=O)(=O)NC(=O)NC2CCCCC2)cc1", "note": "[acetohexamide]", "values": [{"measurement": "SUR1 expression", "setting": "SUR1 transcript", "value": "not expressed"}, {"measurement": "protective effect against UV-induced damage (percentage of rescue), knockout cell lines and wildtype", "setting": "[1]; all knockout lines other than ΔMUTYH (FIG. 3A)", "value": "comparable protective effect against UV-induced damage on all the knockout cell lines tested (and also to wildtype cells)"}, {"measurement": "protective effect on NER-deficient cell lines", "setting": "[1]; knock out cell lines absent of XPA, XPC, ERCC8 (CSA), ERCC6 (CSB) or XPV (POLH)", "value": "general protective effect on NER-deficient cell lines"}, {"measurement": "protective effect against UV-induced damage (percentage of rescue), cells lacking MUTYH", "setting": "[1]; ΔMUTYH (FIG. 3A)", "value": "no effect on cells lacking MUTYH"}]}
